Values quoted from earlier work, collected in patent US8822870B2, “Dielectric insulation medium” (ABB Technology Ltd., priority 2010, dated 2014).

## O=C(C(F)(F)C(F)(F)F)C(F)(C(F)(F)F)C(F)(F)F [C6-ketone, 1,1,1,2,4,4,5,5,5-Nonafluoro-2-(trifluoromethyl)pentan-3-one]
  LC50 4 hours: about 100,000 ppm
